Assay results as given in patent publication US9783488B2 (CHDI Foundation, Inc., priority 2013, dated 2017).

Key:
[1] = tested on: cellular histone deacetylase enzymatic activity in Jurkat E6-1 cells; experiment: Inhibition of cellular HDAC activity in Jurkat E6-1 cells, fluorogenic substrate Boc-Lys(Tfa)-AMC; format: cell-based; details: Homo sapiens, read-out: Cell IC50
Summary of the method: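 Jurkat E6.1 cells (75,000/well) were pre-treated with compound for 2 h at 37 °C, then given Boc-Lys(Tfa)-AMC (5× stock 500 μM) for 3 h. Cells were lysed with trypsin-containing buffer overnight, and released AMC fluorescence was read at Ex 355/Em 460 nm over a 16-point dilution series.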

[2] = molecular target: human catalytic domain HDAC4 protein (amino acids 648-1032) (Homo sapiens (Human), UniProt P56524); experiment: Inhibition of HDAC4 catalytic domain enzymatic activity, fluorogenic substrate Boc-Lys(Tfa)-AMC; details: HDAC4 catalytic domain enzyme, read-out: Biochemical HDAC4 IC50
Sequence of human catalytic domain HDAC4 protein (amino acids 648-1032) (P56524 648-1032): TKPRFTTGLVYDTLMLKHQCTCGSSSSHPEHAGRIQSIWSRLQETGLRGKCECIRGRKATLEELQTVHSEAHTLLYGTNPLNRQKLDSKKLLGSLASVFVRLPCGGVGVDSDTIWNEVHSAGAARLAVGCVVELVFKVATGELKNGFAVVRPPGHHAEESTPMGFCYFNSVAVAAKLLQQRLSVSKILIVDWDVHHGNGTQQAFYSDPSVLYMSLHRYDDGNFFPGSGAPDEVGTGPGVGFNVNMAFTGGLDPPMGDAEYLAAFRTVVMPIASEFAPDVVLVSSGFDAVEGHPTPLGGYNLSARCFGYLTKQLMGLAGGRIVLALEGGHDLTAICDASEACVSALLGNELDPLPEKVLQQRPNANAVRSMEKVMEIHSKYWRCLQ

Structure (SMILES)	IC50 [1]	IC50 [2]
Cc1c(F)cccc1[C@]1(C(=O)NO)CC[C@H](Oc2ccc3cnn(C)c3c2)C1 [Example 92, (1S,3S)-1-(3-Fluoro-2-methylphenyl)-N-hydroxy-3-((1-methyl-1H-indazol-6-yl)oxy)cyclopentanecarboxamide]	470 nM	140 nM
Cc1c(F)cccc1[C@]1(C(=O)NO)CC[C@@H](Oc2cncc(F)c2)C1 [Example 93, (1S,3R)-1-(3-fluoro-2-methylphenyl)-3-((5-fluoropyridin-3-yl)oxy)-N-hydroxycyclopentanecarboxamide]	1900 nM	200 nM
Cc1c(F)cccc1[C@]1(C(=O)NO)CC[C@H](Oc2cncc(F)c2)C1 [Example 94, (1S,3S)-1-(3-fluoro-2-methylphenyl)-3-((5-fluoropyridin-3-yl)oxy)-N-hydroxycyclopentanecarboxamide]	830 nM	160 nM
Cc1c(F)cccc1[C@]1(C(=O)NO)CC[C@@H](Oc2ccccc2)C1 [Example 95, (1S,3R)-1-(3-fluoro-2-methylphenyl)-N-hydroxy-3-phenoxycyclopentanecarboxamide]	1500 nM	160 nM
Cc1c(F)cccc1[C@]1(C(=O)NO)CC[C@H](Oc2ccccc2)C1 [Example 96, (1S,3S)-1-(3-fluoro-2-methylphenyl)-N-hydroxy-3-phenoxycyclopentanecarboxamide]	260 nM	130 nM
Cc1c(F)cccc1[C@]1(C(=O)NO)CC[C@H](OCc2ccc(F)cc2)C1 [Example 97, (1S,3S)-1-(3-fluoro-2-methylphenyl)-3-((4-fluorobenzyl)oxy)-N-hydroxycyclopentanecarboxamide]	660 nM	240 nM
O=C(NO)C1(c2ccccc2)CCCCC1 [Example 98, 1-phenyl-N-hydroxycyclohexylcarboxamide]	> 50000 nM	> 50000 nM
Cc1c(F)cccc1[C@]1(C(=O)NO)CC[C@H](c2cncc(F)c2)CC1 [Example 99, (1r,4r)-1-(3-fluoro-2-methylphenyl)-4-(5-fluoropyridin-3-yl)-N-hydroxycyclohexanecarboxamide]	38000 nM	4100 nM

Next, values leading:

IC50 [1]	IC50 [2]	Structure (SMILES)
370 nM	660 nM	Cc1c(F)cccc1[C@]1(C(=O)NO)CC[C@@H](c2cncc(F)c2)CC1 [Example 100, (1s,4s)-1-(3-Fluoro-2-methylphenyl)-4-(5-fluoropyridin-3-yl)-N-hydroxycyclohexanecarboxamide]
540 nM	680 nM	Cc1c(F)cccc1[C@]1(C(=O)NO)CC[C@H](Oc2ccccc2)CC1 [Example 101, (1r,4r)-1-(3-fluoro-2-methylphenyl)-N-hydroxy-4-phenoxycyclohexanecarboxamide]
49000 nM	14000 nM	Cc1c(F)cccc1[C@]1(C(=O)NO)CC[C@@H](OCc2ccc(F)cc2)CC1 [Example 102, (1s,4s)-1-(3-fluoro-2-methylphenyl)-4-((4-fluorobenzyl)oxy)-N-hydroxycyclohexanecarboxamide]
26000 nM	4200 nM	Cc1c(F)cccc1[C@]1(C(=O)NO)CC[C@@H](c2ccc3cnn(C)c3c2)CC1 [Example 103, (1s,4s)-1-(3-fluoro-2-methylphenyl)-N-hydroxy-4-(1-methyl-1H-indazol-6-yl)cyclohexanecarboxamide]
650 nM	950 nM	Cc1c(F)cccc1[C@]1(C(=O)NO)CC[C@H](c2ccc3cnn(C)c3c2)CC1 [Example 104, (1r,4r)-1-(3-fluoro-2-methylphenyl)-N-hydroxy-4-(1-methyl-1H-indazol-6-yl)cyclohexanecarboxamide]
41100 nM	6900 nM	O=C(NO)C1(c2ccccc2)CCCCCC1 [Example 106, N-hydroxy-1-phenylcycloheptanecarboxamide]
> 50000 nM	> 50000 nM	Cc1c(F)cccc1C1(C(=O)NO)CCCCCC1 [Example 107, 1-(3-Fluoro-2-methylphenyl)-N-hydroxycycloheptanecarboxamide]
